By IC50 is commonly meant the concentration that inhibits the measured activity by half. Broadly, the Ki is the equilibrium dissociation constant of an inhibitor or competing ligand from its target.

Data on 13 compounds can be found in ChEMBL document CHEMBL1909046, “DrugMatrix in vitro pharmacology data”.

The target in assay [1] is T1, Type-2 angiotensin II receptor (Homo sapiens, UniProt P50052). Further: in other assays of this panel Not Active means under 50% inhibition at 10 µM.
T1 sequence (P50052 whole entry): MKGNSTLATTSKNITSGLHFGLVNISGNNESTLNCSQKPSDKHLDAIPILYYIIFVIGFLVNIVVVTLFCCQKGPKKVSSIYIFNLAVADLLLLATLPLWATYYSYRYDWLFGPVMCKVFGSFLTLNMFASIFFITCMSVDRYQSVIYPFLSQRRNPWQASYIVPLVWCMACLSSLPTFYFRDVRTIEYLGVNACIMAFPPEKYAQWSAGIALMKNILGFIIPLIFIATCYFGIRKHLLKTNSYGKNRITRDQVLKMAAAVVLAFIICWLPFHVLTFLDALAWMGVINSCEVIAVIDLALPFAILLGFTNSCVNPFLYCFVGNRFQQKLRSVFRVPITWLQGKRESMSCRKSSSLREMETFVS
The class given is cell-based. The following applies: cho-k1.

Assay [2] in a line: DRUGMATRIX: ATPase, Na+/K+ enzyme inhibition (substrate: ATP). The class given is tissue-based, Sus scrofa, Heart. Particulars: Not Active = under 50% inhibition at 10 µM.
Assay [3] in a line: DRUGMATRIX: Sigma2 radioligand binding (ligand: [3H] Ifenprodil). The class given is cell membranes, Rattus norvegicus, Wistar, Brain, Membrane. The following applies: Not Active = under 50% inhibition at 10 µM.
The target in a further assay is Vasopressin V1a receptor (Homo sapiens, UniProt P37288). In kind it is cell membranes, Membrane. Particulars: hek293. Further: in other assays of this panel Not Active means under 50% inhibition at 10 µM.
Sequence of Vasopressin V1a receptor (P37288 whole entry): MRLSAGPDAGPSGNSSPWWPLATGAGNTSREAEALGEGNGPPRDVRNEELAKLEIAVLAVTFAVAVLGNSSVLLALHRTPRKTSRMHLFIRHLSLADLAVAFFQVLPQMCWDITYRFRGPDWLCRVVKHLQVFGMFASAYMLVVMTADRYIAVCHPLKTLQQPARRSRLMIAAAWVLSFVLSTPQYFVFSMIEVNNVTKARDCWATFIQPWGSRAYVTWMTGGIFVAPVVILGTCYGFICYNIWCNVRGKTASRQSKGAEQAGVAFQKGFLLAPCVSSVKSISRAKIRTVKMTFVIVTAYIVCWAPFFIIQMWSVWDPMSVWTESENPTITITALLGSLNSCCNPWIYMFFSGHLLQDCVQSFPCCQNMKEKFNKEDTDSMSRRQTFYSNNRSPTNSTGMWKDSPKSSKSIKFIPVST
Assay [4] addresses Kappa-type opioid receptor (Homo sapiens, UniProt P41145). Briefly: DRUGMATRIX: Opiate kappa (OP2, KOP) radioligand binding (ligand: [3H] Diprenorphine). The class given is cell membranes, HEK293, Membrane. The following applies: Not Active = under 50% inhibition at 10 µM.
The target in assay [5] is T2, Receptor-type tyrosine-protein phosphatase C (Homo sapiens, UniProt P08575).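 Further: inhibition of CD45 enzyme activity measured using DiFMUP as substrate; in other assays of this panel Not Active means under 50% inhibition at 10 µM.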
T2 sequence (P08575 whole entry): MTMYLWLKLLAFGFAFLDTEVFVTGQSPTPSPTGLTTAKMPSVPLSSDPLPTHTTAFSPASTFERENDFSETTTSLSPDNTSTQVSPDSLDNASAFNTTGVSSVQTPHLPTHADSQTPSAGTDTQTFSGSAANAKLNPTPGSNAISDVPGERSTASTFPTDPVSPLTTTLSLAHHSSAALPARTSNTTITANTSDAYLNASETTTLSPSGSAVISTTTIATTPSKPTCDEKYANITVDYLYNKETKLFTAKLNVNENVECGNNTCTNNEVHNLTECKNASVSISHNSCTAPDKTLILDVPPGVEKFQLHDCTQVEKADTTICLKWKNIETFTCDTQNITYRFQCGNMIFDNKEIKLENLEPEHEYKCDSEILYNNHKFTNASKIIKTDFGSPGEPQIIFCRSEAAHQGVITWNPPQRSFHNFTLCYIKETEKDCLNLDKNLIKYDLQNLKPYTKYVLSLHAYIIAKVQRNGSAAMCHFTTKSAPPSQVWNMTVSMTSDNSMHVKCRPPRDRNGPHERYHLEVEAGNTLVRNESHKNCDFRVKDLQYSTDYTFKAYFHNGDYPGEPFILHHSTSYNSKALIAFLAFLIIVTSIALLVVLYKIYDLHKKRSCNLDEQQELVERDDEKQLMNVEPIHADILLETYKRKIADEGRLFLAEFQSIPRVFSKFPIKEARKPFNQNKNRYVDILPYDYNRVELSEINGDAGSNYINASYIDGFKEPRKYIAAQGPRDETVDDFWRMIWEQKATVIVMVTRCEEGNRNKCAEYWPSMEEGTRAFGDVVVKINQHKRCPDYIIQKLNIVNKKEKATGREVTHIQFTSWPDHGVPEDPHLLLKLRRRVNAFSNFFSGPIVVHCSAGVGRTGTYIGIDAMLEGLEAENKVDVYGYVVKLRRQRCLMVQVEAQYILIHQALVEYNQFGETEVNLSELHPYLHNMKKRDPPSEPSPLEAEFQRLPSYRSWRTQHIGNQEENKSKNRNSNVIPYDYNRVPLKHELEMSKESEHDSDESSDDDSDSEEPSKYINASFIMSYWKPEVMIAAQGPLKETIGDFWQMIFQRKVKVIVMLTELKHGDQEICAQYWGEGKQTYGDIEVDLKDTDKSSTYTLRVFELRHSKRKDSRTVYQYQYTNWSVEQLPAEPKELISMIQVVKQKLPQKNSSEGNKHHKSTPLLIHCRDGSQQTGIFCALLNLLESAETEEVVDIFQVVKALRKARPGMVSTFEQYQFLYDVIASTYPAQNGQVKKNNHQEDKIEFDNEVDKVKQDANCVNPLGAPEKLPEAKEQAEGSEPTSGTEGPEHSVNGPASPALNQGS
Also on record: species or system Escherichia coli.

A further assay has as its target T3, Adenosine receptor A3 (Homo sapiens, UniProt P0DMS8).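 Further: radioligand binding assay with AB-MECA serving as the labeled ligand; in other assays of this panel Not Active means under 50% inhibition at 10 µM.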
T3 sequence (P0DMS8 whole entry): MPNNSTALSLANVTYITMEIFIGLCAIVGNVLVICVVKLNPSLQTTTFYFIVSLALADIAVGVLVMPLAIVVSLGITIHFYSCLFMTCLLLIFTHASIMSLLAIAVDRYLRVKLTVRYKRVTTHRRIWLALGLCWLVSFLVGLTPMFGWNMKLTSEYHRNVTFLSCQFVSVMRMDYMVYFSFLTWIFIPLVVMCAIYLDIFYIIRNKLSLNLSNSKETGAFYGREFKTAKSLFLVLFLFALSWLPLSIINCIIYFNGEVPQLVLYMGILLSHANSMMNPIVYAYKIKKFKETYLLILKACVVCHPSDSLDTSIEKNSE
In kind it is cell membranes, CHO-K1, Membrane.

Sequence of Kappa-type opioid receptor (P41145 whole entry): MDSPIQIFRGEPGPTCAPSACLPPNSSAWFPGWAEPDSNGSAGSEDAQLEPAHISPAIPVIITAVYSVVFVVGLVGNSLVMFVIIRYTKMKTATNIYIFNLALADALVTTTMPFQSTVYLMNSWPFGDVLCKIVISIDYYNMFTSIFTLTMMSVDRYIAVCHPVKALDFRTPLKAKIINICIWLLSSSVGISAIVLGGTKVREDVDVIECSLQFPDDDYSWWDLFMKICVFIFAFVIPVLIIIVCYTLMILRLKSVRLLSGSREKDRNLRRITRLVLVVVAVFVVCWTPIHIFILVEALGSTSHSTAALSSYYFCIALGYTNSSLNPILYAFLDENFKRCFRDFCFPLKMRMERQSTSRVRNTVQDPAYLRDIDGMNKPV

With `CC(C)(C#N)c1cc(Cn2cncn2)cc(C(C)(C)C#N)c1` [ANASTROZOLE], the IC50 entry (in assay [1]; in assay [2]; in assay [3]; on Vasopressin V1a receptor; in assay [4] (hek293); in assay [5]) was “Not Active” each time. Besides, the IC50 result at Adenosine receptor A3 (cho-k1) is “Not Active”. In addition, the inhibition constant (Ki) entry in assay [2] and in assay [3] was “Not Active” in each case.

Turning to `C[C@]12CC[C@@H](O)C[C@@H]1CC[C@@H]1[C@@H]2CC[C@]2(C)C(=O)CC[C@@H]12` [ANDROSTERONE], the half-inhibitory concentration (IC50) entry (in assay [1]; in assay [2]; in assay [3]; at Vasopressin V1a receptor; in assay [4] (hek293); in assay [5]) was “Not Active” each time. On Adenosine receptor A3 (cho-k1), the IC50 result is on record as “Not Active”. The Ki entry in assay [2] and in assay [3] was “Not Active” in each case.

As to `CC(C)NCC(O)COc1ccc(CC(N)=O)cc1` (centres undefined) [ATENOLOL], the IC50 entry (in assay [1]; in assay [2]; in assay [3]; against Vasopressin V1a receptor; in assay [4] (hek293); in assay [5]) was “Not Active” each time. On Adenosine receptor A3 (cho-k1), the half-maximal inhibitory concentration (IC50) result is reported as “Not Active”. Also, the Ki result in assay [2] and in assay [3] was “Not Active” throughout.

In the case of `NCC(CC(=O)O)c1ccc(Cl)cc1` (centres undefined) [BACLOFEN], the IC50 result (in assay [1]; in assay [2]; in assay [3]; against Vasopressin V1a receptor; in assay [4] (hek293); in assay [5]) was “Not Active” throughout. In addition, the concentration for half-maximal inhibition (IC50) result against Adenosine receptor A3 (cho-k1) is on record as “Not Active”. Further, the inhibition constant (Ki) result in assay [2] and in assay [3] was “Not Active” each time.

In the case of `O=C(O)c1ccccc1` [BENZOIC ACID], the 50% inhibitory concentration (IC50) entry (in assay [1]; in assay [2]; in assay [3]; on Vasopressin V1a receptor; in assay [4] (hek293); in assay [5]) was “Not Active” in each case. Besides, on Adenosine receptor A3 (cho-k1), the half-inhibitory concentration (IC50) entry is reported as “Not Active”. The inhibition constant Ki result in assay [2] and in assay [3] was “Not Active” throughout.

For `c1ccc2sc(SSc3nc4ccccc4s3)nc2c1` [BENZOTHIAZYL DISULFIDE], the IC50 result was “Not Active” in assay [1]; “Not Active” in assay [2]; “Not Active” in assay [3]; “Not Active” at Vasopressin V1a receptor; 1240 nM in assay [4] (read-out: IC50); “Not Active” in assay [5]. Also, the half-maximal inhibitory concentration (IC50) on Adenosine receptor A3 (read-out: IC50) stood at 347 nM. The Ki result in assay [2] is “Not Active”; in assay [3] it was “Not Active”; in assay [4], 497 nM; on Adenosine receptor A3 (read-out: Ki), 196 nM.

`OC[C@H]1O[C@@H]2O[C@H]3[C@H](O)[C@@H](O)[C@@H](O[C@H]4[C@H](O)[C@@H](O)[C@@H](O[C@H]5[C@H](O)[C@@H](O)[C@@H](O[C@H]6[C@H](O)[C@@H](O)[C@@H](O[C@H]7[C@H](O)[C@@H](O)[C@@H](O[C@H]8[C@H](O)[C@@H](O)[C@@H](O[C@H]1[C@H](O)[C@H]2O)O[C@@H]8CO)O[C@@H]7CO)O[C@@H]6CO)O[C@@H]5CO)O[C@@H]4CO)O[C@@H]3CO` [BETADEX]: the half-maximal inhibitory concentration (IC50) entry (in assay [1]; in assay [2]; in assay [3]; at Vasopressin V1a receptor; in assay [4] (hek293); in assay [5]) was “Not Active” in each case. For the same compound, the IC50 result against Adenosine receptor A3 (cho-k1) was “Not Active”. Besides, the Ki entry in assay [2] and in assay [3] was “Not Active” each time.

Turning to `C[C@H]1C[C@H]2[C@@H]3CCC4=CC(=O)C=C[C@]4(C)[C@@]3(F)[C@@H](O)C[C@]2(C)[C@@]1(O)C(=O)CO` [BETAMETHASONE], the IC50 result (in assay [1]; in assay [2]; in assay [3]; on Vasopressin V1a receptor; in assay [4] (hek293); in assay [5]) was “Not Active” throughout. The IC50 result against Adenosine receptor A3 (cho-k1) is recorded as “Not Active”. The Ki entry in assay [2] and in assay [3] was “Not Active” in each case.

As to `CC(C)(c1ccc(O)cc1)c1ccc(O)cc1` [BISPHENOL A], the 50% inhibitory concentration (IC50) entry (in assay [1]; in assay [2]; in assay [3]; against Vasopressin V1a receptor; in assay [4] (hek293); in assay [5]) was “Not Active” throughout. Besides, the half-maximal inhibitory concentration (IC50) entry against Adenosine receptor A3 (cho-k1) is given as “Not Active”. For the same compound, the inhibition constant (Ki) entry in assay [2] and in assay [3] was “Not Active” in each case.

Turning to `Cc1c(N)nc([C@H](CC(N)=O)NC[C@H](N)C(N)=O)nc1C(=O)N[C@H](C(=O)N[C@H](C)[C@@H](O)[C@H](C)C(=O)N[C@H](C(=O)NCCc1nc(-c2nc(C(=O)NCCC[S+](C)C)cs2)cs1)[C@@H](C)O)[C@@H](O[C@@H]1O[C@@H](CO)[C@@H](O)[C@H](O)[C@@H]1O[C@H]1O[C@H](CO)[C@@H](O)[C@H](OC(N)=O)[C@@H]1O)c1c[nH]cn1.[Br-]` [BLEOMYCIN A2], the IC50 result (in assay [1]; in assay [2]; in assay [3]; against Vasopressin V1a receptor; in assay [4] (hek293); in assay [5]) was “Not Active” throughout. In addition, the IC50 result against Adenosine receptor A3 (cho-k1) is on record as “Not Active”. Moreover, the Ki result in assay [2] and in assay [3] was “Not Active” each time.

In the case of `CN(Cc1cc(Br)cc(Br)c1N)C1CCCCC1` [BROMHEXINE], the IC50 entry in assay [1] is “Not Active”; in assay [2], “Not Active”; in assay [3] (read-out: IC50) it was 59 nM; on Vasopressin V1a receptor, “Not Active”; in assay [4] (hek293), “Not Active”; in assay [5] it was “Not Active”. On Adenosine receptor A3 (cho-k1), the concentration for half-maximal inhibition (IC50) result is “Not Active”. Further, the Ki result in assay [2] was “Not Active”; in assay [3] (read-out: Ki) it was 36 nM.

In the case of `CC(N)Cc1c[nH]c2ccc(OCc3cccs3)cc12` (centres undefined) [BW-723C86], the IC50 result (in assay [1]; in assay [2]; in assay [3]; at Vasopressin V1a receptor; in assay [4] (hek293); in assay [5]) was “Not Active” throughout. Besides, the IC50 result against Adenosine receptor A3 (cho-k1) is “Not Active”. The Ki result in assay [2] and in assay [3] was “Not Active” throughout.

As to `CC12CCC(CC1=O)C2(C)C` (centres undefined) [CAMPHOR], the IC50 entry (in assay [1]; in assay [2]; in assay [3]; at Vasopressin V1a receptor; in assay [4] (hek293); in assay [5]) was “Not Active” each time. Further, the IC50 result at Adenosine receptor A3 (cho-k1) is “Not Active”. Moreover, the Ki entry in assay [2] and in assay [3] was “Not Active” in each case.
